Test results as given in US6808724B2, “Artemisolide compound isolated from the aerial parts of Artemisia sylvatica, isolation method, and use thereof” (Korea Research Institute of Bioscience and Biotechnology, priority 2002, dated 2004).

Legend:
mice = assay: Toxicity test in mice; format: in vivo
Protocol: The compound expressed by the formula 1 was dissolved in dimethyl sulfoxide (DMSO). The solution was diluted with water and administered to mice (10 heads per group) by 100 μg/kg.

[1] = system: H-ras (H-ras gene transformed NIH3T3 cell); assay: Cell growth inhibition (WST-1), H-ras; format: cell-based; details: Mus musculus, 48 hr culture, read-out: GI50, the concentration when the cancer cell growth is inhibited by 50%
Protocol: (§1) NIH3T3 (mouse fibroblast), K-ras (K-ras gene transformed NIH3T3 cell), H-ras (H-ras gene transformed NIH3T3 cell) and SW620 (human colon cancer cell) solid tumor cell lines were cultured in 10% of bovine serum albumin or RPMI 1640 medium (containing L-glutamine and not containing sodium bicarbonate; Gibco Cat. No 31800-022) under 37° C. and 5% CO2 condition. The subculture was carried out 2 times a week. The cells were separated from the wall using 0.5% of trypsin and 5.3 mM EDTA (ethylenediamine tetra acetic acid) dissolved in phosphate buffer solution (PBS). In each well of 96-well plate (Falcon), 3×10^3-6×10^3 cells were added and cultured at 37° C. in the presence of 5% CO2 of medium for 24 hr. The new compound was dissolved in dimethyl sulfoxide (DMSO) and diluted to the concentration required for the test. The final concentration of DMSO was set to be lower than 0.5%.
(§2) After removing all medium from the 96-well plate, […] of the new compound was added to each well. After 48 hr of culture, WST-1 was added to each well. Then the culture plate was placed for 3 hr at 37° C. in the presence of 5% CO2. When the reaction was completed, light absorption at 450-690 nm was measured by using an ELISA reader to identify the cancer cell growth inhibition effect.

[2] = system: NIH3T3 (mouse fibroblast); assay: Cell growth inhibition (WST-1), NIH3T3; format: cell-based; details: 48 hr culture, read-out: GI50, the concentration when the cancer cell growth is inhibited by 50%
Protocol: as §1, §2

Molt-4 cell = assay: Leukemia cell growth inhibition, Molt-4; format: cell-based; details: Homo sapiens, read-out: GI50, the concentration when the cancer cell growth is inhibited by 50%
Protocol: as §2

[3] = system: K-ras (K-ras gene transformed NIH3T3 cell); assay: Cell growth inhibition (WST-1), K-ras; format: cell-based; details: Mus musculus, 48 hr culture, read-out: GI50, the concentration when the cancer cell growth is inhibited by 50%
Protocol: as §1, §2

farnesyl transferase = target: T1, farnesyl transferase (Rattus norvegicus, UniProt Q02293+Q04631); assay: Farnesyl transferase inhibition, scintillation proximity assay with 3H-FPP and biotin-lamin B peptide; format: biochemical
T1 construct: 100-150 g of brain was separated from a male rat (Sprague Dowley); from tissue; host or cells: rat (Sprague Dawley) brain
Protocol: 100-150 g of brain was separated from a male rat (Sprague Dowley). It was washed with a physiological salt solution and homogenized. Then, farnesyl transferase enzymogen was separated by centrifuging and partially purifying the homogenate with a Q Sepharose Fast Flow Column. The enzyme activity was determined by scintillation proximity assay (SPA), using the ^3H-farnesyl pyrophosphate (FPP) substrate.
To be specific, the method of Michael S. Brown, etc. (Yuval Reiss, Joseph L. Goldstein, Miguel C. Seabra, Patrick J. Casey and Michael S. Brown, 1990, Inhibition of Purified p21ras Farnesyl Protein Transferase by Cys-AAX Tetrapeptides, 62, 81-88) was modified a little. 10 μl of the sample liquid, 10 μl of analysis buffer solution (50 mM Tris-HCL pH7.5, 25 mM MgCl2, 2 mM KCl, 5 mM DTT, 5 mM Na2HPO4, 0.01% Triton X-100), 20 μl of diluted ^3H-FPP, 20 μl biotin-lamin B peptide and 40 μl of farnesyl transferase were mixed well and rendered to react for 30 min at room temperature. Then, 150 μl of SPA bead/stop reagent solution was added. The farnesylation level of biotin-lamin B peptide was measured by using a scintillation counter in CPM (counts per minute) unit. The farnesyl transferase activity inhibition was calculated via Equation 1. [formula] […]

HL-60 cell = assay: Leukemia cell growth inhibition, HL-60; format: cell-based; details: Homo sapiens, read-out: GI50, the concentration when the cancer cell growth is inhibited by 50%
Protocol: as §2

[4] = Physical and chemical properties: solubility in solvents; format: physicochemical
Protocol: The structure of the obtained white powder compound was analyzed by NMR. The compound is expressed by Formula 1 (molecular formula=C25H32O4; molecular weight=396.52).

[5] = system: SW620 (human colon cancer cell); assay: Cell growth inhibition (WST-1), SW620; format: cell-based; details: SW-620, 48 hr culture, read-out: GI50, the concentration when the cancer cell growth is inhibited by 50%
Protocol: as §1, §2

**Q.** With C=C1C(=O)O[C@@H]2[C@@H]1CC[C@](C)(O)C13C=CC(C)([C@@H]21)[C@]1(C3)C(=O)C[C@@]2(C(C)C)C[C@H]21 (some centres unmarked) [Formula 1, Artemisolide] as the molecule, how does the “acute toxicity in the animal test” value (mice) read?
**A.** The value was “no acute toxicity”.

**Q.** What about the GI50 [1] of the same molecule?
**A.** The GI50 was 1.2 µg/mL.

**Q.** What about the GI50 [2] of the same molecule?
**A.** The GI50 was roughly 5.5 µg/mL.

**Q.** And the GI50 (Molt-4 cell)?
**A.** The GI50 was 3.2 µM.

**Q.** And the GI50 [3]?
**A.** Its GI50 is roughly 0.8 µg/mL.

**Q.** And the inhibition at 100 µg/mL (farnesyl transferase; at 100 μg/ml)?
**A.** The inhibition at 100 µg/mL was roughly 50%.

**Q.** And the IC50 (farnesyl transferase; read-out: IC50 (concentration for inhibiting activity by 50%) on farnesyl transferase (converted))?
**A.** The IC50 was roughly 252 µM.

**Q.** And the GI50 (HL-60 cell)?
**A.** Its GI50 is roughly 1.5 µM.

**Q.** And the “Insoluble in” value [4]?
**A.** The value was “Hexane”.

**Q.** And the “Soluble in” value [4]?
**A.** The value was “MeOH; acetone; EtOAc”.

**Q.** What about the GI50 [5] of the same molecule?
**A.** The GI50 was 2.5 µg/mL.
